Results as given in US20140271855A1, “SOVAPREVIR TABLETS” (Achillion Pharmaceuticals Inc., priority 2013, published 2014).

How the values were obtained:
[1] = Human pharmacokinetic parameters following a single Sovaprevir tablet dose; type: in vivo; settings: single tablet dose 200 mg, mean
Procedure: A single 200 mg dose of Sovaprevir was administered to human subjects.
The pharmacokinetic parameters shown in TABLE 4 were measured in humans following administration of a single Sovaprevir tablet dose.

[2] = as above; type: in vivo; settings: mean
[3] = single tablet dose 100 mg (Fasted)
[4] = single tablet dose 100 mg (Fed)

Structure (SMILES): C=C[C@@H]1C[C@]1(NC(=O)[C@@H]1C[C@@H](Oc2cc(-c3ccccc3)nc3cc(OC)ccc23)CN1C(=O)[C@@H](CC(=O)N1CCCCC1)C(C)(C)C)C(=O)NS(=O)(=O)C1CC1 [Sovaprevir]
- AUC(0-∞) [1]: 500.0 ng·h/mL
- Cmax [1]: 109 ng/mL
- Tmax [1]: 2.61 h
- AUC(0-72) [2, 3]: 288 ng·h/mL
- AUC(0-∞) [2, 3]: 302 ng·h/mL
- Cmax [2, 3]: 67.2 ng/mL
- Tmax [2, 3]: 1.58 h
- AUC(0-72) [2, 4]: 220 ng·h/mL
- AUC(0-∞) [2, 4]: 228 ng·h/mL
- Cmax [2, 4]: 61.9 ng/mL
- Tmax [2, 4]: 4.20 h
- AUC(0-72) ([2]; single tablet dose 200 mg): 489.9 ng·h/mL
- AUC(0-72) ([2]; single tablet dose 250 mg): 735.6 ng·h/mL
- AUC(0-∞) ([2]; single tablet dose 250 mg): 748.8 ng·h/mL
- Cmax ([2]; single tablet dose 250 mg): 172 ng/mL
- Tmax ([2]; single tablet dose 250 mg): 3.40 h
- AUC(0-72) ([2]; single tablet dose 300 mg): 1301 ng·h/mL
- AUC(0-∞) ([2]; single tablet dose 300 mg): 1314 ng·h/mL
- Cmax ([2]; single tablet dose 300 mg): 333 ng/mL
- Tmax ([2]; single tablet dose 300 mg): 3.39 h
